This is an account of results in ChEMBL document CHEMBL4364281, “Design of wogonin-inspired selective cyclin-dependent kinase 9 (CDK9) inhibitors with potent in vitro and in vivo antitumor activity” (Eur J Med Chem, 2019).

Values after ≈ are worked out from the molar mass of the structure shown. Active and inactive are the calls of the source. The rule behind the calls is not given here.

Series [1] concerns HepG2. The series can be described thus: cells. The conditions noted are these: Homo sapiens, HepG2, 72 h.
Description: Antiproliferative activity against human HepG2 cells assessed as reduction in cell viability after 72 hrs by MTT assay
Series [2] addresses CDK9/cyclin T1 (Homo sapiens, UniProt P50750).
Series [3] addresses CDK2/Cyclin A2 (Homo sapiens, UniProt P24941+P20248).
Description: (§1) Inhibition of human CDK2/cyclin-A2 using H1 histone as substrate after 2 hrs by [gamma-33P]-ATP assay
Series [4] deals with HCT-116. The series can be described thus: cells. Conditions: Homo sapiens, HCT-116, 72 h.
Description: Antiproliferative activity against human HCT116 cells assessed as reduction in cell viability after 72 hrs by MTT assay
Series [5] deals with A549. Put plainly: cells. Conditions: Homo sapiens, A549, 72 h.
Description: Antiproliferative activity against human A549 cells assessed as reduction in cell viability after 72 hrs by MTT assay
For series [6], the system named is MV4-11. Put plainly: cells. Conditions: Homo sapiens, MV4-11, 72 h.
Description: Antiproliferative activity against human MV4-11 cells assessed as reduction in cell viability after 72 hrs by MTT assay
The subject of series [7] is MV4-11. The series can be described thus: Antitumor activity against human MV4-11 cells xenografted in BALB/c mouse assessed as reduction in tumour growth at 5 mg/kg, iv administered every other day for 21 days. The class given is functional, organism-based.
Series [8] addresses CDK2/Cyclin A2 (Homo sapiens, UniProt P24941).
Description: as §1
Series [9] is described as follows: physchem. Conditions: buffer, pH 7.4.
Description: Hydrophobicity, log D of compound at pH 7.4
The nature of series [10]: physchem. Conditions: methanesulfonic acid buffer, pH 4.5.
Description: Solubility of compound in methanesulfonic acid buffer at pH 4.5
Series [11] is described as follows: physchem.
Description: Intrinsic solubility of compound by potentiometric titration assay

Sequence of CDK9/cyclin T1 (O60563 whole entry): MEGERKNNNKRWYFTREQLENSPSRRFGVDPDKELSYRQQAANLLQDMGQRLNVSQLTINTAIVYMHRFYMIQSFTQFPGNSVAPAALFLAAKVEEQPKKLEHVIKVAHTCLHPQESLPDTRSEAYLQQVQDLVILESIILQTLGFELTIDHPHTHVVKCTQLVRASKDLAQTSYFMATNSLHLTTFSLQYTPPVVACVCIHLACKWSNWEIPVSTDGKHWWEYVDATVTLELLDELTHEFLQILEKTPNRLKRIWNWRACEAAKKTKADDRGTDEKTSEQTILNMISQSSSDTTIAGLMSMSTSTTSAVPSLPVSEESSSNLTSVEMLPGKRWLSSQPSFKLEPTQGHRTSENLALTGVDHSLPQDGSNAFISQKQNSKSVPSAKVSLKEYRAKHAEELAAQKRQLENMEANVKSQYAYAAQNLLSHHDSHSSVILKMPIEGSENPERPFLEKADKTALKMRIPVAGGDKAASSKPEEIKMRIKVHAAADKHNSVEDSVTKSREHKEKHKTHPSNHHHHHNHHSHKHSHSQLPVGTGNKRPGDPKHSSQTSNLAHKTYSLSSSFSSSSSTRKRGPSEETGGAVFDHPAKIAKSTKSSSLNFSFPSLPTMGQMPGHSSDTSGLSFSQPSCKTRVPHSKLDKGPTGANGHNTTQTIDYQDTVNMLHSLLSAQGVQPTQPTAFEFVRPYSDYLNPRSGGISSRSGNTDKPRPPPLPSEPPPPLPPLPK
Sequence of CDK9/cyclin T1 (P50750 whole entry): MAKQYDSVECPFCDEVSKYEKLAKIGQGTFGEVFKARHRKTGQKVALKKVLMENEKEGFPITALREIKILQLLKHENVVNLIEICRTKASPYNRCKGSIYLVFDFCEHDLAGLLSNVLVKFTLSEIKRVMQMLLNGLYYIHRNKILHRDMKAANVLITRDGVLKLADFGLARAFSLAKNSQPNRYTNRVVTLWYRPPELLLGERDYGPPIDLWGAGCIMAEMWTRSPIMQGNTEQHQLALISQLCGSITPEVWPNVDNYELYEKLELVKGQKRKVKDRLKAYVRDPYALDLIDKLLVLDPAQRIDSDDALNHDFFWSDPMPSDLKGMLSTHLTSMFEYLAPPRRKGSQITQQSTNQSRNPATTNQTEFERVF

For the compound `COc1c(O)cc(O)c2c(=O)cc(-c3cccc(C(F)(F)F)c3)oc12`, in series [1], the half-inhibitory concentration (IC50) is above 100 µM. The same measure, in the same setting: as for `COc1c(O)cc(O)c2c(=O)cc(-c3ccc(N4CCCNCC4)cc3)oc12`, the figure is 18.2 µM; as for `CCN(CC)c1ccc(-c2cc(=O)c3c(O)cc(O)c(OC)c3o2)cc1`, 6.4 µM; as for `COc1c(O)cc(O)c2c(=O)cc(-c3ccc(N4CCCC4)cc3)oc12`, above 100 µM. Same read-out and setting: as for `O=c1cc(-c2ccc(N3CCNCC3)cc2)oc2c(OC3CCCCC3)c(O)cc(O)c12`, the figure is 22.8 µM; as for `CN1CCC(Oc2c(O)cc(O)c3c(=O)cc(-c4ccc(N5CCNCC5)cc4)oc23)CC1`, 39.4 µM. Regarding `COc1c(O)cc(O)c2c(=O)cc(-c3cccc(N4CCOCC4)c3)oc12`, the half-maximal inhibitory concentration (IC50) in series [1] was above 100 µM. For `COc1c(O)cc(O)c2c(=O)cc(-c3ccc(N4CCNCC4)cc3)oc12`, inhibition in series [1] was half-maximal at 17.9 µM (IC50). Still for that read-out and setting: to `COc1c(O)cc(O)c2c(=O)cc(-c3ccccc3Cl)oc12` belongs above 100 µM; to `O=c1cc(-c2ccc(N3CCNCC3)cc2)oc2c(OC3CCCC3)c(O)cc(O)c12`, 5.3 µM. Still for that read-out and setting: to `CN1CCN(c2ccc(-c3cc(=O)c4c(O)cc(O)c(OC5CCCCC5)c4o3)cc2)CC1` belongs 27.8 µM. As for `CC(C)Oc1c(O)cc(O)c2c(=O)cc(-c3ccc(N4CCN(C)CC4)cc3)oc12`, the IC50 in series [2] was 0.179 µM; in series [1], 14.8 µM; in series [3] it was “Not Active”; in [4] it was 12.8 µM; in series [5], 4.1 µM; in series [6] it was 6.3 µM. For `COc1c(O)cc(O)c2c(=O)cc(-c3ccccc3Br)oc12`, 33.5 µM corresponded to half-maximal inhibition in [1] (IC50). On the same count and under the same terms, as for `CN1CCN(c2ccc(-c3cc(=O)c4c(O)cc(O)c(OC5CCNC5)c4o3)cc2)CC1` (stereo not given), the figure is above 100 µM; as for `COc1c(O)cc(O)c2c(=O)cc(-c3ccc([N+](=O)[O-])cc3)oc12`, above 100 µM; as for `O=c1cc(-c2ccc(N3CCNCC3)cc2)oc2c(OCc3ccco3)c(O)cc(O)c12`, 8.3 µM. Turning to `COc1cccc2c1C(=O)c1c(O)c3c(c(O)c1C2=O)C[C@@](O)(C(=O)CO)C[C@@H]3O[C@H]1C[C@H](N)[C@H](O)[C@H](C)O1`, the inhibition result in series [7] is “Active”. Take `CC(C)Oc1c(O)cc(O)c2c(=O)cc(-c3ccc(N4CCNCC4)cc3)oc12`: the IC50 in [2] was 0.0941 µM; in [1], 18 µM; in series [3], “Not Active”; in series [4] it was 3.4 µM; in [5], 5.5 µM; in series [6] it was 6.1 µM. In turn, `CN1CCN(c2ccc(-c3cc(=O)c4c(O)cc(O)c(OC5CCCC5)c4o3)cc2)CC1` returned an IC50 in series [1] of 15.8 µM.

On to `COc1c(O)cc(O)c2c(=O)cc(-c3ccc(N4CCN(C)CC4)cc3)oc12`, for which the concentration for half-maximal inhibition (IC50) in [1] stood at 6.6 µM. Same read-out and setting: as for `COc1c(O)cc(O)c2c(=O)cc(-c3cccc(N4CCCNCC4)c3)oc12`, the figure is 21.7 µM.

In turn, `COc1c(O)cc(O)c2c(=O)cc(-c3cccc(Br)c3)oc12` displayed an IC50 in series [1] of 38.2 µM. Compound `CN1CCC(Oc2c(O)cc(O)c3c(=O)cc(-c4ccc(N5CCN(C)CC5)cc4)oc23)CC1` registered a half-inhibitory concentration (IC50) in series [1] of 6.7 µM.

Turning to `COc1c(O)cc(O)c2c(=O)cc(-c3ccccc3C(F)(F)F)oc12`, in [1], the half-inhibitory concentration (IC50) was above 100 µM.

For `COc1c(O)cc(O)c2c(=O)cc(-c3cccc(N4CCNCC4)c3)oc12`, the half-maximal inhibitory concentration (IC50) in series [1] stood at 9.9 µM. Regarding `O=c1cc(-c2ccc(N3CCNCC3)cc2)oc2c(OC3CCNC3)c(O)cc(O)c12` (stereo not given), the concentration for half-maximal inhibition (IC50) in series [1] is above 100 µM.

`COc1c(O)cc(O)c2c(=O)cc(-c3cccc(N4CCN(C)CC4)c3)oc12` yielded an IC50 in series [1] of 13.1 µM.

As to `Cc1n[nH]c(C)c1Oc1c(O)cc(O)c2c(=O)cc(-c3ccc(N4CCN(C)CC4)cc3)oc12`, the IC50 in series [2] was determined as 0.0127 µM; in series [1] it was 6.3 µM; in series [8], 0.83 µM; in [4] it was 3.3 µM; in series [5], 2.5 µM; in [6], 2.2 µM.

As for `CN1CCN(c2ccc(-c3cc(=O)c4c(O)cc(O)c(Oc5c[nH][nH]c5=O)c4o3)cc2)CC1`, the IC50 in series [1] came out at 8.1 µM. For the compound `Cc1n[nH]c(C)c1Oc1c(O)cc(O)c2c(=O)cc(-c3ccc(N4CCNCC4)cc3)oc12`, the concentration for half-maximal inhibition (IC50) in [2] came to 0.0108 µM; in series [1] it was 8.5 µM; in series [8] it was 1.04 µM; in series [4], 4.8 µM; in series [5], 5.5 µM; in series [6], 4.4 µM. The compound also returned a logD in series [9] of 2.91. Besides, the solubility in [10] turned out to be 0.03 mg/mL (≈ 66.9 µM); in [11], 0.001 mg/mL (≈ 2.23 µM). In [1], `COc1c(O)cc(O)c2c(=O)cc(-c3ccc(N4CCOCC4)cc3)oc12` displayed an IC50 of 78.3 µM.

The compound `CN1CCN(c2ccc(-c3cc(=O)c4c(O)cc(O)c(OCc5ccco5)c4o3)cc2)CC1` came in with an IC50 in series [1] of 7 µM.
